Results taken from patent US20250108139A1, “PEPTIDE UREA DERIVATIVE, PHARMACEUTICAL COMPOSITION CONTAINING PEPTIDE UREA DERIVATIVE, AND APPLICATION OF PEPTIDE UREA DERIVATIVE” (BIVISION PHARMACEUTICALS, INC, priority 2022, published 2025).

Assays:
[1] = system: 22rv1 tumor-bearing Balb/c Nude mouse; assay: Treatment efficacy in 22RV1 tumor-bearing mouse model; type: in vivo; conditions: for T/C: 21st day; for Tumor volume, 21st day of group administration: mean ± standard error
Procedure: Balb/c Nude mouse, approximately 6-8 weeks old, were subcutaneously inoculated with 3×10^6 22rv1 cells (in 50% Matrigel, Corning) into the right scapular region. Once the tumors reached the required size for the experiment, the animals were randomly assigned into 11 experimental groups based on tumor volume, with 5 mouse per group. The body weight and tumor size of the animals were measured. On the day of grouping, treatments were administered as follows: control group (normal saline), group 1 (^177Lu-DB-13, 0.15 mCi/mouse), group 2 (^177Lu-DB-13, 0.45 mCi/mouse), group 3 (^177Lu-DB-13, 0.05 mCi/mouse), group 4 (^177Lu-B-11, 0.05 mCi/mouse), group 5 (^177Lu-DB-11, 0.15 mCi/mouse), group 6 (^177Lu-DB-11, 0.45 mCi/mouse), group 7 (^177Lu-PSMA-617, 0.15 mCi/mouse), group 8 (^177Lu-PSMA-617, 0.45 mCi/mouse), group 9 (^177Lu-DB-19, 0.05 mCi/mouse), group 10 (^177Lu-DB-19, 0.15 mCi/mouse), group 11 (^177Lu-DB-19, 0.45 mCi/mouse). After the start of treatment, general health and appearance were observed daily. Body weight and tumor size were measured at each sampling time point. Any abnormal observations during the study were recorded in the raw data.

[2] = target: PSMA protein (Homo sapiens (Human), UniProt Q04609); assay: Affinity of DB compounds to PSMA protein using Biacore (Effect Example 3); conditions: Biacore 8K, 15° C., 1:1 binding model; pKD=−Log KD
PSMA protein, sequence (Q04609 whole entry): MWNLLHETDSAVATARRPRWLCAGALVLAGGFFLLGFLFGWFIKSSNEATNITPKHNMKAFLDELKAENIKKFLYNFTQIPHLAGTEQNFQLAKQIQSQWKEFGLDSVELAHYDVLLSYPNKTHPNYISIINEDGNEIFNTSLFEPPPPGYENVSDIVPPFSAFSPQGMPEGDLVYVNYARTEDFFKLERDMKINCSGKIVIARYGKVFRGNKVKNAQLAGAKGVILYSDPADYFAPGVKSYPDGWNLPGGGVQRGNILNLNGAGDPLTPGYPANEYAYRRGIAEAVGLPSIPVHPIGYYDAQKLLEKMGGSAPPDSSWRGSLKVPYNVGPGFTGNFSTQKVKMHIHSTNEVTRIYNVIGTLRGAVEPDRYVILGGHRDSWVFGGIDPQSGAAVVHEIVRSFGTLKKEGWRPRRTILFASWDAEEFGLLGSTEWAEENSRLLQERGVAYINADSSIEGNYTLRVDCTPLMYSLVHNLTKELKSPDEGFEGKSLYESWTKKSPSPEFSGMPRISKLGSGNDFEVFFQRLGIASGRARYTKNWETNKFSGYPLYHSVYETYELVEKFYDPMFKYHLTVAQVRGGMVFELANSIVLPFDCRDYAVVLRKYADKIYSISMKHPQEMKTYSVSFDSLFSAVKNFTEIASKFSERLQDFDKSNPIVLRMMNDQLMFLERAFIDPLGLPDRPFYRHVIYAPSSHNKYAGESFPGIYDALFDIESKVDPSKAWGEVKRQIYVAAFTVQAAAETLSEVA
Procedure: The affinity of DB compounds to PSMA protein was tested using the Biacore 8K (Cytiva) instrument to detect ligand binding to PSMA protein (Sino Biological). PSMA protein was captured on an SA chip. Before fixing the ligand (flow paths 1 and 2, flow rate of 10 μL/min), PSMA protein (10 μg/mL, flow rate of 5 μL/min, injection time of 600 s) was fixed on flow path 2 using a flow buffer. The sensor surface was adjusted by continuously injecting 1 M NaCl three times in 50 mM NaOH. After each ligand injection, additional cleaning was performed using isopropanol in 1 M NaCl and 50 mM NaOH (flow paths 1 and 2, flow rate of 10 μL/min, injection time of 60 s).
All compounds were dissolved in 100% DMSO and diluted to 10 mM, then further diluted to the appropriate highest concentration in the analysis buffer (PBS, PH 7.4, 1 mM TCEP ([…]), 0.05% P20, 2% DMSO). The analysis was conducted under the following conditions: 15° C. analysis temperature; analysis steps=all set to LMW kinetics; cycle type=single cycle (90 s contact time, 1800 s dissociation time, 30 μL/min flow rate, flow paths 1 and 2); detection in flow=path 2-1. Data evaluation was performed using Biacore Insight Evaluation Software, fitting the data to a 1:1 binding model.
Biacore results are shown in Table 5: pKD=−Log KD, wherein KD is the binding affinity of the compound to PSMA protein measured by Biacore. It is expressed by Kd (M)=Kd (1/s)/Ka (1/Ms). A indicates pKD>8; B indicates 7<pKD<8; C indicates 6<pKD<7; D indicates pKD<6.

[3] = system: PSMA-positive 22rv1 tumor-bearing mouse; assay: 177Lu labeling and animal biodistribution experiment, gamma counter; type: in vivo; conditions: 177Lu-labeled compound, 24 h after tail vein injection, n = 2
Procedure: Distribution in PSMA-positive tumor-bearing mouse tissues: Tumor-bearing animals (purchased from Shanghai Alamo Pharmaceutical Technology Co., Ltd.) were subcutaneously inoculated with 3×10^6 22rv1 cells (in 50% Matrigel, Corning) into the right shoulder region of 6-9 week old (Balb/c Nude) mouse. Once the tumors had grown to an appropriate size, ^177Lu-radiolabeled DB compounds were injected into the mouse via the tail vein (approximately 1.85 MBq-3.7 MBq/mouse, specific activity: 22423.82 Kbq/μg). After administration, the animals were euthanized using carbon dioxide inhalation at 24 hours. The blood and organs (blood, liver, kidney, muscle, tumor) were collected.
Blood was collected through the abdominal aorta and 100 μL was immediately quantified into designated centrifuge tubes (weighed). After collection, the organs were washed twice with deionized water, dried, placed in pre-weighed tubes, and weighed again to calculate the sample weight. Samples were measured on the day of collection. All blood and tissue samples were measured for radioactivity using a gamma counter. The results are shown in FIGS. 3, 4, 5, 6, 7, and Table 6.

[4] = target: PSMA-expressing cells (22Rv1) (Homo sapiens (Human), UniProt Q04609); assay: Competitive binding against radiolabeled PSMA-617 ligand on 22Rv1 cells; conditions: unlabeled compound vs radiolabeled PSMA-617 ligand, on ice 2 hours
PSMA-expressing cells (22Rv1), sequence (Q04609 whole entry): as above
Procedure: (1) 22Rv1 cells in the logarithmic growth phase were prepared into a cell suspension, and the cell density was adjusted to 1×10^4 cells/mL. 1 mL of the cell suspension was seeded into each well of a 24-well cell culture plate. The cells were cultured overnight in a 37° C. incubator.
(2) The cell culture medium was aspirated, and the cells were washed once with PBS. Then, 975 μL of additive-free medium was added.
(3) To each well, 25 μL of a fixed concentration of radiolabeled PSMA-617 ligand (final concentration in the medium: 2 μCi/mL) and different concentrations (final concentrations in the medium: 1000 ng/ml, 100 ng/mL, 10 ng/mL, 1 ng/mL, 0.1 ng/mL, 0.01 ng/mL, 0.001 ng/mL, 0 ng/ml) of the unlabeled test blocking compounds DB-18, DB-19, DB-13, E-3 were added.
(4) The cells were incubated on ice for 2 hours.
(5) The cells were washed three times with ice-cold PBS.
(6) The cells were lysed with 0.5 mL of 1 M sodium hydroxide, and washed twice with 0.5 mL PBS. The sodium hydroxide (0.5 mL) and PBS (0.5 mL×2) solutions were collected for uptake counting.

[5] = Determination of Log P (n-octanol/water partition); type: physicochemical; conditions: 177Lu-labeled compound, mean of three tubes
Procedure: Three EP tubes were prepared, each containing 0.1 mL of saturated n-octanol and 80 μL of ultrapure water. Then, 20 μL (approximately 1 MBq) of the ^177Lu-labeled DB-13, DB-18, and DB-19 compound solutions were added to the respective tubes. After shaking evenly, the tubes were centrifuged at room temperature (2000 r/min, 5 minutes, centrifugation radius of 10 cm). From each tube, 100 μL was taken from both the lipid layer and the aqueous layer, and the radioactivity counts per minute for both phases were measured. The Log P values were calculated, and their mean values were taken as the final result.

[6] = system: albumin in rat plasma; assay: Plasma protein binding (PPB) test by ultrafiltration; type: in vitro ADME; conditions: 177Lu-labeled compound
Procedure: The labeled compounds ^177Lu-E-3, 177Lu-DB-13, 177Lu-DB-18, and ^177Lu-DB-19 (1 μCi) were prepared in a reaction solution by adding 50 μL of PBS to achieve a concentration of 20 μCi/mL. 50 μL of the 20 μCi/mL reaction solution was added to 200 μL of plasma, repeated for 3 tubes. The mixture was mixed well and incubated at room temperature for 10 minutes, then added to ultrafiltration tubes and centrifuged at 13000 rpm for 45 minutes. Following this, 50 μL of normal saline was added and the samples were centrifuged again for 15 minutes. The upper chamber and the filtrate were respectively counted for radioactivity.
PPB=[(upper chamber counts−background counts]/(filtrate counts+upper chamber counts−2*background counts)]*100%.

[7] = target: hPSMA-biotin (Homo sapiens (Human), UniProt Q04609); assay: Binding kinetics and affinity with PSMA protein by Biacore 8K (Effect Example 1); conditions: for Kd / kd / kon: 1:1 binding model; for kon: read-out: ka
hPSMA-biotin, sequence (Q04609 whole entry): as above
Procedure: The dissociation constant was determined using the Biacore 8K (GE Healthcare) following the manufacturer's instructions. In brief, PSMA-bio protein, diluted in PBS pH 7.4 with 1 mM TCEP, 0.05% Tween 20, and 2% DMSO buffer, was immobilized on the flow cell of an SA sensor chip. Using PBS pH 7.4, 1 mM TCEP, 0.05% Tween 20, and 2% DMSO as the running buffer, five serial dilutions of the PSMA-targeting candidate molecules were injected into the flow cell at a rate of 30 μL/min, with a binding time of 90 seconds. The buffer flow was maintained for 1800 seconds to allow dissociation. The KD values for the interaction between the candidate small molecules and the PSMA protein were evaluated using Biacore 8K evaluation software 1.0 and a 1:1 binding model.

| Kd [2] [nM] | Blood uptake [3] [% ID/g] | Kidney uptake [3] [% ID/g] | Liver uptake [3] [% ID/g] | Muscle uptake [3] [% ID/g] | IC50 [4] [nM] | logP [5] | plasma protein binding ratio (albumin binding ratio) [6] [%] | SMILES | other results |
| --- | --- | --- | --- | --- | --- | --- | --- | --- | --- |
| < 10 |  |  |  |  | 2.58 | -1.86 | 70.51 | O=C(O)CC[C@H](NC(=O)NC(CCCCNC(=O)[C@H](Cc1ccc2ccccc2c1)NC(=O)c1ccc2c(c1)CCN(C(=O)c1cc(NC(=O)CN3CCN(CC(=O)O)CCN(CC(=O)O)CCN(CC(=O)O)CC3)cc(C(=O)N3CCc4cc(C(=O)N[C@@H](Cc5ccc6ccccc6c5)C(=O)NCCCC[C@H](NC(=O)N[C@@H](CCC(=O)O)C(=O)O)C(=O)O)ccc4C3)c1)C2)C(=O)O)C(=O)O (stereo partly drawn) [DB-18] |  |
| < 10 | 1.715 | 177.885 | 2.725 | 0.73 | 0.93 | -1.79 | 59.07 | O=C(O)CC[C@H](NC(=O)NC(CCCCNC(=O)[C@H](Cc1ccc2ccccc2c1)NC(=O)c1ccc2c(c1)CCN(C(=O)CNC(=O)c1cc(NC(=O)CNC(=O)CN3CCN(CC(=O)O)CCN(CC(=O)O)CCN(CC(=O)O)CC3)cc(C(=O)NCC(=O)N3CCc4cc(C(=O)N[C@@H](Cc5ccc6ccccc6c5)C(=O)NCCCC[C@H](NC(=O)N[C@@H](CCC(=O)O)C(=O)O)C(=O)O)ccc4C3)c1)C2)C(=O)O)C(=O)O (stereo partly drawn) [DB-19] | tumor growth inhibition compared with PSMA-617 ([1]; two doses, 0.15 mCi and 0.45 mCi): superior tumor growth inhibition |
| < 10 |  |  |  |  |  |  |  | O=C(O)CC[C@H](NC(=O)N[C@@H](CCCCNC(=O)[C@H](Cc1ccc2ccccc2c1)NC(=O)[C@H]1CC[C@H](CNC(=O)CN2CCN(CC(=O)O)CCN(CC(=O)O)CCN(CC(=O)O)CC2)CC1)C(=O)O)C(=O)O [PSMA-617, reference compound] | Kd [7]: 0.483 nM; kd [7]: 4.88e-05 s⁻¹; kon [7]: 101000 M⁻¹ s⁻¹ |

The remaining lines, values behind:

| SMILES | Kd [2] [nM] | Blood uptake [3] [% ID/g] | Kidney uptake [3] [% ID/g] | Liver uptake [3] [% ID/g] | Muscle uptake [3] [% ID/g] | IC50 [4] [nM] | logP [5] | plasma protein binding ratio (albumin binding ratio) [6] [%] | other results |
| --- | --- | --- | --- | --- | --- | --- | --- | --- | --- |
| O=C([O-])CN1CCN(CC(=O)[O-])CCN(CC(=O)NCC2CCC(C(=O)N[C@@H](Cc3ccc4ccccc4c3)C(=O)NCCCC[C@H](NC(=O)N[C@@H](CCC(=O)O)C(=O)O)C(=O)O)CC2)CCN(CC(=O)[O-])CC1.[177Lu+3] (stereo partly drawn) [177Lu-PSMA-617] |  |  |  |  |  |  |  |  | T/C ([1]; 0.15 mCi/mouse): 97.41%; Tumor volume, 21st day of group administration ([1]; 0.15 mCi/mouse): 2,616.99 ± 203.91 mm^3; T/C ([1]; 0.45 mCi/mouse): 101.47%; Tumor volume, 21st day of group administration ([1]; 0.45 mCi/mouse): 2,726.19 ± 926.52 mm^3 |
| O=C(O)CC[C@H](NC(=O)N[C@@H](CCCCNC(=O)[C@H](Cc1ccc2ccccc2c1)NC(=O)c1ccc2c(c1)CCN(C(=O)CN1CCN(CC(=O)O)CCN(CC(=O)O)CCN(CC(=O)O)CC1)C2)C(=O)O)C(=O)O [Compound E-3, reference compound] | < 10 | 0.02 | 2.01 | 0.09 | 0.035 | 2.06 | -3.46 | 86.61 | Tumor uptake [3]: 32.875 % ID/g |
| O=C(O)CC[C@H](NC(=O)N[C@@H](CCCCNC(=O)[C@H](Cc1ccc2ccccc2c1)NC(=O)[C@H]1CC[C@H](CNC(=O)c2cc(NC(=O)CN3CCN(CC(=O)O)CCN(CC(=O)O)CCN(CC(=O)O)CC3)cc(C(=O)NC[C@H]3CC[C@H](C(=O)N[C@@H](Cc4ccc5ccccc5c4)C(=O)NCCCC[C@H](NC(=O)N[C@@H](CCC(=O)O)C(=O)O)C(=O)O)CC3)c2)CC1)C(=O)O)C(=O)O [DB-01] | < 10 |  |  |  |  |  |  |  | binding affinity compared with PSMA-617 [7]: slightly higher than that of PSMA-617; Kd [7]: 0.12 nM; kd [7]: 2.65e-05 s⁻¹; kon [7]: 222000 M⁻¹ s⁻¹ |
| O=C(O)CC[C@H](NC(=O)N[C@@H](CCCCNC(=O)[C@H](Cc1ccc2ccccc2c1)NC(=O)c1ccc2c(c1)CCN(C(=O)CCC(=O)NCCCC[C@H](NC(=O)CCC(=O)N1CCc3cc(C(=O)N[C@@H](Cc4ccc5ccccc5c4)C(=O)NCCCC[C@H](NC(=O)N[C@@H](CCC(=O)O)C(=O)O)C(=O)O)ccc3C1)C(=O)NCCNC(=O)CN1CCN(CC(=O)O)CCN(CC(=O)O)CCN(CC(=O)O)CC1)C2)C(=O)O)C(=O)O [DB-11] | < 10 | 1.125 | 87.105 | 1.625 | 0.055 |  |  |  | Tumor uptake [3]: 41.83 % ID/g; tumor growth inhibition ([1]; high dose 0.45 mCi, effect decreased over time, remained higher than PSMA-617): a certain degree of tumor growth inhibition |
